Results on 1 compound are retold here after ChEMBL document CHEMBL2311511, “Dipeptide cis-cyclo(Leucyl-Tyrosyl) produced by sponge associated Penicillium sp. F37 inhibits biofilm formation of the pathogenic Staphylococcus epidermidis” (Bioorg Med Chem Lett, 2013).

In data set [1] the test system is Staphylococcus epidermidis. As to the kind of experiment: Inhibition of Staphylococcus epidermidis ATCC 35984 biofilm formation at 0.5 mg/ml. The class given is functional.
In data set [2] the test system is Staphylococcus epidermidis. As to the kind of experiment: Inhibition of Staphylococcus epidermidis ATCC 35984 biofilm formation at 1 mg/ml. The class given is functional.
Data set [3] concerns Staphylococcus epidermidis. As to the kind of experiment: Inhibition of Staphylococcus epidermidis ATCC 35984 biofilm formation at 0.25 mg/ml. The class given is functional.
The subject of data set [4] is Staphylococcus epidermidis. Kind of data set: Toxicity in Staphylococcus epidermidis ATCC 35984 assessed as growth inhibition at 0.25 to 1 mg/ml. The settings on record: in vivo. In kind it is organism-based.
The test system of data set [5] is Staphylococcus epidermidis. As to the kind of experiment: Inhibition of Staphylococcus epidermidis ATCC 35984 biofilm formation at 0.125 mg/ml. In kind it is functional, organism-based.
Data set [6] has as its system Staphylococcus epidermidis. Kind of data set: Inhibition of Staphylococcus epidermidis ATCC 35984 biofilm formation at 1 mg/ml after 24 hrs by scanning electron microscopy. The class given is functional, organism-based.

Activity calls are given as the source filed them. No cut-off for these calls is given here.

Take `CC(C)C[C@@H]1NC(=O)[C@H](Cc2ccc(O)cc2)NC1=O`: the inhibition (as a rule, the drop in the measured response relative to a control, in per cent) at 500 µg/mL in data set [1] is 65%. The compound also gave an inhibition at 1000 µg/mL in data set [2] of 85%. In data set [3], the inhibition at 250 µg/mL is 60%. Moreover, in data set [4], the Activity entry is “Non-toxic”. In addition, in data set [5], the outcome was inactive. The inhibition result in data set [6] was “Active”.
